Entries after “also recorded” stand apart in the source; their conditions may differ.
How the values were obtained:
[1] = tested on: human blood vessel organoids; experiment: Diabetic basement membrane thickening (Collagen IV) in human blood vessel organoids cultured in diabetic medium; type: cell-based; settings: for increase of Col IV+ basement membrane under diabetic conditions: 75 mM Glucose, 1 ng/mL IL-6, 1 ng/mL TNF-α, 10 μM RO4929097, 1 μM Dehydroxy-LY411575, 1 μM LY411575; for diabetic basement membrane thickening (Col IV) on blocking Notch pathway members: 2 weeks diabetic media (hyperglycemia + IL-6 + TNF-a), blocking antibodies or non-crosslinked recombinant proteins; for high glucose/TNFα/IL6-induced thickening of the basal blood vessel membrane (Collagen IV): diabetic medium 75 mM Glucose, 1 ng/mL TNFα, 1 ng/mL IL-6, drug doses (DAPT 25 μM)
Protocol: Modeling diabetic vasculopathy in human vascular organoids. Established endothelial networks in vascular organoids were cultured in a non-diabetic control medium (17 mM Glucose) or diabetic medium (75 mM Glucose, in the presence of absence of human TNFα (1 ng/mL, Invitrogen PHC3011) and/or IL-6 (1 ng/mL, Peprotech 200-06)) for up to 3 weeks before the basement membrane was investigated by Collagen type IV immunostaining and electron microscopy. D-Mannitol was used in non-diabetic media to control for hyperosmotic effects. For basement membrane quantifications, acquired z-stacks were analysed and the thickness of ColIV coats around luminal structures were measured using ImageJ software. For drug treatment, organoids were exposed to diabetic medium (75 mM Glucose, 1 ng/mL human TNFα, and 1 ng/mL IL-6) in the presence or absence of the following drugs: 2,4-Thiazolidinedione (5 mM, Abcam ab144811), Metformin (5 mM, Abcam ab120847), Acarbose (80 μg/mL, Sigma A8980), […] (100 μM, Sigma N3538), Diphenyleneiodonium (10 μM), Glimepiride (30 nM, Sigma G2295), Pioglitazone (10 μM, Sigma E6910). The following small molecule inhibitors were used: N-Acetyl-L-cysteine (500 μM, Sigma, A7250), CHIR99021 (10 μM, Tocris 4423), Goe6976 (100nM, Merck U51365250), MK2206 (10 μM, EubioS1078), QNZ (10 μM, Eubio […]), 5B203580 (10 μM, Eubio […]), SCH772984 (500 nM, Eubio […], Calbiochem 688000), DAPT (25 μM, Sigma D5942), 5B431542 (10 μM, Abcam ab120163).

[2] = tested on: human blood vessel organoids; experiment: as above; type: cell-based; settings: diabetic cocktail, indicated DAPT doses (FIG. 5)
[3] = tested on: human vascular organoid transplants; experiment: Vessel leakage (FITC-Dextran extravasation) of human vascular organoid transplants in diabetic STZ mice; type: in vivo, mouse; settings: diabetic STZ NSG mice, DAPT 5 mg/kg
Protocol: (§1) Modeling diabetic vasculopathy in human vascular organoids in vivo. Immunodeficient NSG mice carrying human vascular organoid transplants were daily i.p. injected with 40 mg/kg Streptozotocin (STZ) (Merck, 572201) for 5 consecutive days. Every day, STZ was freshly dissolved in citrate buffer (pH4.6) and immediately used. Diabetes was confirmed (blood glucose >300 mg/dL) by measuring non-fasting glucose using the OneTouch UltraEasy system (Lifetouch, AW 06637502C). DAPT (Selleckchem 52215) was dissolved in ethanol and injected with 90% cornoil for 5 consecutive days at 5 mg/kg with 2 days of no treatment per week. Anti-Notch3 blocking antibodies (R&D AF1559) were injected 3 time/week at lmg/kg. For quantifying vessel leakage, the FITC-Dextran^+ area was measured and normalized to the area of perfused human blood vessels (hCD31^+) using the FIJI software. This ratio was then further normalized to control non-diabetic mice. Permeability of long-term DAPT treated vessels were measured after 2 days of treatment stop to avoid measuring acute effects of DAPT on vessel permeability.

[4] = tested on: human vascular organoid transplants; experiment: Human CD31+ blood vessel density of vascular organoid transplants in diabetic STZ mice; type: in vivo, mouse; settings: diabetic STZ NSG mice, DAPT 5 mg/kg
Protocol: as §1

For `C[C@H](NC(=O)[C@@H](O)c1cc(F)cc(F)c1)C(=O)N[C@@H]1C(=O)N(C)c2ccccc2-c2ccccc21` [LY411575], the “increase of Col IV+ basement membrane under diabetic conditions” value (from here on “increase of Col IV+ basement membrane”) [1] was “prevent the increase of basement membrane (Col IV) under diabetic conditions”.

`C[C@H](NC(=O)Cc1cc(F)cc(F)c1)C(=O)N[C@@H]1C(=O)N(C)c2ccccc2-c2ccccc21` [Dehydroxy-LY411575] was tested, and the “increase of Col IV+ basement membrane” value [1] was “prevent the increase of basement membrane (Col IV) under diabetic conditions”.

With “D114: non-crosslinked recombinant protein (Notch ligand, Delta-like protein 4) used as blocker” the “diabetic basement membrane thickening (Col IV) on blocking Notch pathway members” value [1] was “completely blocked basement membrane thickening”.

`O=C1CSC(=O)N1` [thiazolidinedione, 2,4-Thiazolidinedione] was tested, and the “high glucose/TNFα/IL6-induced thickening of the basal blood vessel membrane (Collagen IV)” value (from here on “high glucose/TNFα/IL6-induced thickening”) [1] was “none of the medicines that we tested”.

In the case of `C[C@H](NC(=O)Cc1cc(F)cc(F)c1)C(=O)N[C@H](C(=O)OC(C)(C)C)c1ccccc1` [DAPT], the “high glucose/TNFα/IL6-induced thickening” value [1] is reported as “abrogates thickening of the vascular basement membrane; also recorded: can prevent diabetic vascular basement membrane thickening; also recorded: completely abrogated the expansion of collagen IV and basal membrane thickening; also recorded: nearly completely prevented the thickening of the basal membrane”, the “dose dependence of prevention of basement membrane thickening (ColIV thickness)” value [2] is reported as “dose dependent; also recorded: dose-dependent” and the “vessel permeability / leakage (FITC-Dextran extravasation)” value [3] is reported as “normalized diabetic vessel permeability; also recorded: excessive blood vessel leakiness was rescued”. For the same molecule, the “human blood vessel (CD31+) density in transplanted vascular organoids” value [4] was “restores human vessel density; also recorded: rescued the loss of CD31^+ human blood vessels”.

In the case of `c1ccc2c(c1)[I+]c1ccccc1-2` [diphenyleneiodonium, Diphenyleneiodonium], the “high glucose/TNFα/IL6-induced thickening” value [1] is reported as “none of the medicines that we tested”.

In the case of `CC(C)(C(=O)NCC(F)(F)C(F)(F)F)C(=O)N[C@@H]1C(=O)Nc2ccccc2-c2ccccc21` [RO4929097], the “increase of Col IV+ basement membrane” value [1] is reported as “prevent the increase of basement membrane (Col IV) under diabetic conditions”.

With `CN(C)C(=N)N=C(N)N` [metformin, Metformin] the “high glucose/TNFα/IL6-induced thickening” value [1] was “none of the medicines that we tested”.

For `CCC1=C(C)CN(C(=O)NCCc2ccc(S(=O)(=O)NC(=O)N[C@H]3CC[C@H](C)CC3)cc2)C1=O` [glimepiride, Glimepiride], the “high glucose/TNFα/IL6-induced thickening” value [1] was “none of the medicines that we tested”.

For `CC(C)[C@H]1CC[C@H](C(=O)N[C@H](Cc2ccccc2)C(=O)O)CC1` [nateglindine, Nateglindine], the “high glucose/TNFα/IL6-induced thickening” value [1] was “none of the medicines that we tested”.

B1: D111: non-crosslinked recombinant protein (Notch ligand) used as blocker (protein, UniProt O00548 18-723, looked up)
Delta-like protein 1: QVWSSGVFELKLQEFVNKKGLLGNRNCCRGGAGPPPCACRTFFRVCLKHYQASVSPEPPCTYGSAVTPVLGVDSFSLPDGGGADSAFSNPIRFPFGFTWPGTFSLIIEALHTDSPDDLATENPERLISRLATQRHLTVGEEWSQDLHSSGRTDLKYSYRFVCDEHYYGEGCSVFCRPRDDAFGHFTCGERGEKVCNPGWKGPYCTEPICLPGCDEQHGFCDKPGECKCRVGWQGRYCDECIRYPGCLHGTCQQPWQCNCQEGWGGLFCNQDLNYCTHHKPCKNGATCTNTGQGSYTCSCRPGYTGATCELGIDECDPSPCKNGGSCTDLENSYSCTCPPGFYGKICELSAMTCADGPCFNGGRCSDSPDGGYSCRCPVGYSGFNCEKKIDYCSSSPCSNGAKCVDLGDAYLCRCQAGFSGRHCDDNVDDCASSPCANGGTCRDGVNDFSCTCPPGYTGRNCSAPVSRCEHAPCHNGATCHERGHRYVCECARGYGGPNCQFLLPELPPGPAVVDLTEKLEGQGGPFPWVAVCAGVILVLMLLLGCAAVVVCVRLRLQKHRPPADPCRGETETMNNLANCQREKDISVSIIGATQIKNTNKKADFHGDHSADKNGFKARYPAVDYNLVQDLKGDDTAVRDAHSKRDTKCQPQGSSGEEKGTPTTLRGGEASERKRPDSGCSTSKDTKYQSVYVISEEKDECVIATEV
With B1 the “diabetic basement membrane thickening (Col IV) on blocking Notch pathway members” value [1] was “did not impact on the diabetes mediated thickening of the vascular basement membrane”.

Source: patent US20200199541A1, “BLOOD VESSEL ORGANOID, METHODS OF PRODUCING AND USING SAID ORGANOIDS” (IMBA - INSTITUT FÜR MOLEKULARE BIOTECHNOLOGIE GMBH, priority 2017, published 2020)
